How the values were obtained:
[1] = Study 2 part 2: pharmacokinetics with 250-mg loading dose then 50 mg once daily; assay type: in vivo, human
Protocol: During study 2, GLPG1205 50 mg or matching placebo was administered as capsules in the morning 30 minutes after the start of a standard breakfast. Subjects were kept in‐house from the evening of day –1 to ≈26 hours after the first dose (day 2), and from the evening of day 13 until day 15. Administration of the study drug was performed daily at the clinical pharmacology unit. Subjects returned for a follow‐up visit at day 35.
In part 1, 24 healthy male subjects were matched into 3 cohorts based on body weight: Cohort A comprised 8 subjects aged 65–74 years, inclusive; cohort B comprised 8 subjects aged ≥75 years (1:1 weight matched with cohort A subjects [± 5 kg]); and cohort C comprised 8 subjects aged 18 to 50 years, inclusive (1:1 weight matched with cohort A subjects [± 5 kg]). All cohorts received GLPG1205 50 mg once daily or matching placebo, in a 3:1 ratio, for 14 days. In the open‐label second part of study 2, 8 subjects (cohort D) aged 65 to 74 years, inclusive, were included to characterize the PK profile after a loading dose of GLPG1205 250 mg on day 1 followed by multiple doses of GLPG1205 50 mg once daily from day 2 to day 14.
In the SAD part of study 1, blood samples (2 mL) for PK assessments were obtained before dosing and at multiple time points on the day of study drug administration (before dosing and 0.5, 1, 2, 4, 6, 8, and 12 hours after dosing) and at 24, 48, and 72 hours after dosing. The predose sample for the next dose level was also used in PK analysis (168 hours after dosing). […] In the MAD part of study 1, blood samples (2 mL) were obtained on days 1, 2, 4, 5, 6, 8, 10, 12, 14, 15, 16, 17, and 18 and at follow‐up (approximately 7 to 10 days after the last dose). These PK blood samples were taken after dosing (1, 2, 4, 6, 8, 12, and 24 hours) on day 1; before dosing on days 4, 6, 8, and 10; and after dosing (1, 2, 4, 6, 8, 12, 24, 72, and 96 hours) on day 14. The following additional PK blood samples were also taken: cohort C, before dosing on day 5; and cohorts D and E, before dosing on day 12. Urine samples were obtained from fractions collected over 6‐ or 12‐hour periods after dosing on days –1, 1, 2, 13, 14, and 15; samples obtained on days –1 and 13 were for cytochrome P450 (CYP) induction analysis only. In study 2, blood samples (2 mL) were obtained on days 1, 2, 5, 7, 10, 14, 15, 17, and 20 and at follow‐up (approximately 21 days after end of study medication administration). Blood samples were taken before dosing and at 1, 2, 4, 6, 8, 12, and 24 hours after drug administration on days 1 and 14 and before dosing on other sampling days.
GLPG1205 plasma concentrations were determined using a validated liquid chromatography with tandem mass spectrometry method. After a protein precipitation with methanol, a chromatographic separation was performed on a Kinetex C18 column (50×3.0 mm, 2.6 μm; Phenomenex, Torrance, California) set at 40°C by using a Nexera high‐performance liquid chromatography (HPLC) system (Shimadzu, Kyoto, Japan) or an Infinity HPLC system (Agilent Technologies, Diegem, Belgium) in isocratic elution mode. A QTRAP6500, QTRAP4000, or API4000 mass spectrometer (AB Sciex, Nieuwerkerk aan den Ijssel, The Netherlands) equipped with a TurboIonSpray probe operated in the multiple reaction monitoring in positive mode was used for quantification. The calibration curves in plasma were linear over the range of 1 to 1000 ng/mL with 1/x^2 as weighting factor. The limit of quantification of the assay in the plasma samples was set at 1 ng/mL.
PK calculations were performed using Phoenix WinNonlin 6.2 (Pharsight Corporation, Palo Alto, California). […] AUC0‐inf was calculated from the area under the plasma concentration‐time curve from time 0 until the time corresponding with the last observed quantifiable concentration + Ct/λz, where Ct was the last observed quantifiable concentration and λz the first‐order terminal rate constant. […]

[2] = Safety across both studies and all dose groups; assay type: in vivo, human; details: both studies
Protocol: Safety and tolerability were assessed on the basis of adverse events (AEs), which were monitored throughout both studies. Additional safety assessments included vital signs (including supine [and standing in study 2] heart rate, systolic and diastolic blood pressure, and oral body temperature), 12‐lead electrocardiogram (ECG), clinical laboratory tests (hematology, coagulation [study 2 only], serum/plasma chemistry, urinalysis, urine drug screen, serology, and alcohol breath test), and a comprehensive physical examination. In the SAD part of study 1, clinical laboratory tests, physical examination, and vital signs were assessed at the screening visit, at the time of dosing (0 hours after dose), 24 hours after dosing and at follow‐up (7 to 10 days after the final dose). Vital signs were additionally observed 2 hours after dosing, and the 12‐lead ECG was additionally completed at 1, 2, 6, 8, and 12 hours after dosing. In the MAD part of study 1, all additional safety assessments were performed at screening; days 1, 2, 8, 14, and 15; and at follow‐up. In study 2, additional safety assessments were performed at screening (between 21 and 2 days before the first study drug administration); days 1, 2, 5, 10, 14, 15, and 20 (clinical laboratory tests were not performed on day 20); at early discontinuation; and at follow‐up. For study 2, renal function tests (measurement of estimated creatinine clearance rate using the Cockcroft‐Gault equation) were also included in the clinical laboratory tests for safety assessment.
In both studies, the safety analysis was descriptive and focused on changes from baseline and treatment‐emergent findings.

[3] = set-up: method as in PMID 32902984; details: human and animals; cited from earlier work
[4] = test system: cytochrome P450 (CYP) 3A4 and CYP2C19; details: background statement, no reference given; cited from earlier work
CYP1A2 = test system: CYP1A2; set-up: method as in data on file at Galapagos; details: in vitro; ref data on file at Galapagos; cited from earlier work

O=c1nc(OC[C@@H]2COCCO2)cc2n1CCc1cc(C#CC3CC3)ccc1-2 [GLPG1205, 9‐cyclopropylethynyl‐2‐((S)‐1‐[1,4]dioxan‐2‐ylmethoxy)‐6,7‐dihydropyrimido[6,1‐a]isoquinolin‐4‐one]
steady-state exposure with loading dose vs cohort A without ([1]; 250-mg loading dose + 13 days 50 mg once daily vs 14 days 50 mg once daily): no difference in steady‐state exposure | quantifiability in plasma after last dose ([1]; 144 hours after the last dose on day 14, all subjects): quantifiable in plasma up to day 20 | time of maximal mean GLPG1205 concentration ([1]; after 250-mg loading dose on day 1): 12 hours after dosing | day by which steady state in plasma concentration was reached ([1]; after the loading dose of 250 mg): ≤ 2 days | Rac ([1]; cohort D 65-74 y, 250-mg loading dose then 50 mg once daily, day 14, mean (CV%)): 1.35 (22.8) | Rac point estimate (CI), cohort D vs cohort A ([1]; day 14, ratio of cohort D relative to cohort A expressed as a percentage): <.0001 22.11 (18.46‐26.48) | subjects with GLPG1205 below the limit of quantification ([1]; follow-up visit day 35, 504 hours after the last dose): 5 of 8 | Cmax ([1]; human, plasma, oral, cohort D 65-74 y, 250-mg loading dose then 50 mg once daily, day 14, mean (CV%)): 2630 ng/mL | AUC(0-inf) ([1]; human, plasma, oral, cohort D 65-74 y, 250-mg loading dose then 50 mg once daily, day 14, mean (CV%), N = 6): 250 µg·h/mL | half-life ([1]; human, plasma, oral, cohort D 65-74 y, 250-mg loading dose then 50 mg once daily, day 14, mean (CV%), N = 7, read-out: t1/2,λz (converted)): 55.4 h | AUC(0-t) ([1]; human, plasma, oral, cohort D 65-74 y, 250-mg loading dose then 50 mg once daily, day 14, mean (CV%), read-out: AUC0–24h): 53.7 µg·h/mL | concentration at 24 h ([1]; human, plasma, oral, cohort D 65-74 y, 250-mg loading dose then 50 mg once daily, day 14, mean (CV%), read-out: C24h): 2360 ng/mL | concentration at 504 h ([1]; human, plasma, oral, day 35, 504 hours after the last dose, subjects in whom still quantifiable, read-out: plasma GLPG1205 level at follow-up): 2.01 to 21.6 ng/mL | time to reach steady-state exposure ([1]; single 250-mg loading dose): 1 days | ECG and vital signs [2]: no clinically significant trends | deaths or serious AEs [2]: No deaths or serious AEs occurred | subjects with headache (TEAE) ([2]; all GLPG1205 dose groups): 17 subjects | subjects with nausea (TEAE) ([2]; all GLPG1205 dose groups): 12 subjects | subjects with treatment-emergent AEs ([2]; all GLPG1205 dose groups): 44 subjects | plasma protein binding [3]: ≥ 92% | main enzymes involved in GLPG1205 metabolism [4]: cytochrome P450 (CYP) 3A4 and CYP2C19 | induction of CYP1A2 (CYP1A2): weak induction

Reference: publication PMC8453901, “GLPG1205, a GPR84 Modulator: Safety, Pharmacokinetics, and Pharmacodynamics in Healthy Subjects” (Clinical Pharmacology in Drug Development, 2021)
